Reference: patent publication US5486525A, “Platelet activating factor antagonists: imidazopyridine indoles” (priority 1994, dated 1996)
Read-outs that look alike come from different tables or passages of the source.

Target: T1, PAF receptor (Oryctolagus cuniculus, UniProt G1TEI7)
T1 construct: platelet membranes were prepared by centrifugation and washing; tissue Pel-Freez (Rogers, AR); host or cells: rabbit blood platelets (membranes prepared from citrated whole rabbit blood)
Assay: PAF receptor binding assay: inhibition of specific [^3 H]C18 -PAF binding to rabbit platelet membranes

[1] = Table 1, rabbit platelet membranes, 0.6 nM [^3 H]C18 -PAF, 60 minutes at room temperature, Ki by Cheng and Prusoff, read-out: Ki

T1 sequence (G1TEI7 1-342): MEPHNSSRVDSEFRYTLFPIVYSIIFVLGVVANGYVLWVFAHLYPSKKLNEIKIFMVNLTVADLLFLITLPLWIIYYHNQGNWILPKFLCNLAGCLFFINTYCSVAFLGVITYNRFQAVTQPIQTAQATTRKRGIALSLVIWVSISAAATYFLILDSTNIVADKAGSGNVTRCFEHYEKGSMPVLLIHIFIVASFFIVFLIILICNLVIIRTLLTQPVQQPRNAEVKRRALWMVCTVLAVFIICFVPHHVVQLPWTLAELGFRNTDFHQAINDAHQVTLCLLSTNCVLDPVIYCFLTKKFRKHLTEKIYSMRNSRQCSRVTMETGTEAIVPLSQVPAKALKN

SMILES	Ki	Ki [1]	other results
CCOCCn1cc(C(=O)c2ccc(Cn3c(C)nc4cnccc43)cc2)c2c(Cl)cccc21 [Example 138, 1-(2-Ethoxyethyl)-4-chloro-3-{4-[(1H-2-methylimidazo[4.5-c]pyrid-1-yl)methyl]benzoyl}indole]	2.2 nM	–	–
COC(=O)c1cccc2c1c(C(=O)c1ccc(Cn3c(C)nc4c(Cl)nccc43)cc1)cn2C(=O)N(C)C [Example 174, 1-N,N-Dimethylcarbamoyl-4-methoxycarbonyl-3-{4-[(4-chloro-1H-2-methylimidazo[4.5-c]pyrid-1-yl)methyl]benzoyl}indole]	–	–	Ki (Table 1, rabbit platelet membranes, 0.6 nM [^3 H]C18 -PAF, 60 minutes at room temperature, Ki by Cheng and Prusoff): 4 nM
COC(=O)c1cccc2c1c(C(=O)c1ccc(Cn3c(C)nc4cnccc43)cc1)cn2S(=O)(=O)N(C)C [Example 131, 1-N,N-Dimethylsulfamoyl-4-methoxycarbonyl-3-{4-[(1H-2-methylimidazo[4.5-c]pyrid-1-yl)methyl]benzoyl}indole]	4.7 nM	–	–
Cc1nc2ccncc2n1CC(=O)c1cn(C(=O)N(C)C)c2cc(-c3ccc(F)cc3)ccc12 [Example 23, 1-N,N-Dimethylcarbamoyl-6-(4-fluorophenyl)-3-[(3H-2-methylimidazo[4.5-c]pyrid-3-yl)methylcarbonyl]indole]	–	–	inhibition at 1 µM: 7%
Cc1nc2cnccc2n1Cc1ccc(C(=O)c2c[nH]c3cc(-c4ccc(F)cc4)ccc23)cc1 [Example 3, 6-(4-Fluorophenyl)-3-{4-[(1H-2-methylimidazo[4.5-c]pyrid-1-yl)methyl]benzoyl}indole]	–	75 nM	–
Cc1nc2ccncc2n1Cc1ccc(C(=O)c2c[nH]c3cc(-c4ccc(F)cc4)ccc23)cc1 [Example 6, 6-(4-Fluorophenyl)-3-{4-[(3H-2-methylimidazo[4.5-c]pyrid-3-yl)methyl]benzoyl}indole]	–	140 nM	–
Cc1nc2cccnc2n1Cc1ccc(C(=O)c2cn(C(=O)N(C)C)c3ccccc23)cc1 [Example 27, 1-N,N-Dimethylcarbamoyl-3-{4-[(3H-2-methylimidazo[4.5-b]pyrid-3-yl)methyl]benzoyl}indole]	160 nM	–	–
Cc1nc2ccncc2n1Cc1cccc(C(=O)c2c[nH]c3ccccc23)c1 [Example 19, 3-{3-[(3H-2-Methylimidazo[4.5-c]pyrid-3-yl)methyl]benzoyl}indole]	–	280 nM	–
